This note sets out measurements from patent US20210113602A1, “USE OF 6-THIO-2'-DEOXYGUANOSINE (6-THIO-dG) TO TREAT MELANOMA” (The Board of Regents of the University of Texas System, priority 2018, published 2021).

For assay [1], the system named is NRASmut melanoma cells (WM3000 or M93-047) tumors. Put plainly: NRAS mutant melanoma xenograft tumors in NSG mice. The class given is in vivo. Particulars: 2.5 mg/kg i.p. q.d. On the procedure: FIGS. 2a-h. […] (FIGS. 2a-c) NRASmut melanoma cells (FIG. 2a), BRAF-V600E/NRAS mutant cells derived from melanoma patients resistant to BRAF/MEK inhibitors (FIG. 2b), or non-transformed melanocytes and fibroblasts (FIG. 2c) were treated with 6-thio-dG for 7 days. Cell viability was measured by Alamar Blue assay and calculated relative to DMSO-treated cells. (FIG. 2d) NRASmut melanoma cells and non-transformed human fibroblasts were treated with 1 or 5 μM 6-thio-dG for 7 or 14 days. Cell death was assessed by PSVUe staining. Percent of apoptotic cells is shown. (FIG. 2e) Cells were treated with DMSO or 1 μM 6-thio-dG for 14 days and telomere length was assessed by Southern blotting of TRF. Mean TRF length expressed as kilobase pairs is indicated at the bottom. […] (FIG. 2f) ROS production was measured by H2DCFDA fluorescence and normalized to MSO treated cells. (FIG. 2g) DNA damage was assessed by γH2AX staining. […] Tumor volume was measured and average tumor volume (n=4)±SEM was plotted vs. time.
green) and EtBr (dead cells; red) and imaged using an inverted microscope (4×; scale bar=250 μm). […] P values were calculated using unpaired Student's t-test. * p<0.05, **p<0.01, ***p<0.005, when comparing vehicle control vs. combination treatment groups. […] Kaplan Meier survival curves of mice treated for 14 days. p-values were calculated by Mantel-Cox logrank test; * p<0.05, **p<0.01, ***p<0.005. […]

In assay [2] the test system is NRAS mutant melanoma cells. Put plainly: Mitochondrial ROS, MitoSox Red. The class given is cell-based, human. Particulars: 1 μM 6-thio-dG for 7 days. On the procedure: FIGS. 3a-g. Telomere dysfunction enhances oxidative stress leading to upregulation of an antioxidant program. (FIGS. 3a-d) NRASmut melanoma cells were transduced with TERT shRNA (FIG. 3a, FIG. 3c) or treated with 1 μM 6-thio-dG for 7 days (FIG. 3b, FIG. 3d). mRNA levels of the indicated genes were quantified by qRT-PCR (FIG. 3a, FIG. 3b). Mitochondrial superoxide production was measured by MitoSox Red fluorescence (FIG. 3c, FIG. 3d) and expressed as fluorescence relative to vector or DMSO controls. (FIG. 3e) NRASmut melanoma cells were treated with 1 μM of 6-thio-dG for the indicated times and SOD2 protein levels measured by Western blotting. (FIG. 3f) SOD2 was silenced using shRNA. Transduced M93-047 cells were treated with DMSO or 1 μM of 6-thio-dG and cell death was assessed by Annexin V/PI straining. (FIG. 3g) M93-047 cells were transduced with a SOD2 lentiviral construct or empty vector control (pLX304). Transduced cells were treated with increasing doses (1, 2.5 and 5 μM) of 6-thio-dG for 7 days and cell death was assessed. […]
FIGS. 4a-e. […] Cell death was assessed by Annexin V and PI staining. […] Cells were stained with Annexin V and PI and percent cell death was determined by flow cytometry. (FIGS. 4c-e) Cells were treated as in FIG. 4b and mitochondrial ROS levels were measured using Mitosox Red by FACS. […] P values were calculated using unpaired Student's t-test; * p<0.05; ***p<0.005. […]

In assay [3] the test system is detoxifying enzymes such as SOD2, GPX1 and UCP2. As to the kind of experiment: mRNA levels of detoxifying enzymes by qRT-PCR. It counts as cell-based, human. Particulars: 1 μM 6-thio-dG for 7 days. On the procedure:
FIGS. 3a-g. Telomere dysfunction enhances oxidative stress leading to upregulation of an antioxidant program. (FIGS. 3a-d) NRASmut melanoma cells were transduced with TERT shRNA (FIG. 3a, FIG. 3c) or treated with 1 μM 6-thio-dG for 7 days (FIG. 3b, FIG. 3d). mRNA levels of the indicated genes were quantified by qRT-PCR (FIG. 3a, FIG. 3b). Mitochondrial superoxide production was measured by MitoSox Red fluorescence (FIG. 3c, FIG. 3d) and expressed as fluorescence relative to vector or DMSO controls. (FIG. 3e) NRASmut melanoma cells were treated with 1 μM of 6-thio-dG for the indicated times and SOD2 protein levels measured by Western blotting. (FIG. 3f) SOD2 was silenced using shRNA. Transduced M93-047 cells were treated with DMSO or 1 μM of 6-thio-dG and cell death was assessed by Annexin V/PI straining. (FIG. 3g) M93-047 cells were transduced with a SOD2 lentiviral construct or empty vector control (pLX304). Transduced cells were treated with increasing doses (1, 2.5 and 5 μM) of 6-thio-dG for 7 days and cell death was assessed. Data represent average from three independent experiments±SEM. *p<0.05; **p<0.01; ***p<0.005 in unpaired Student's t-test.
For orientation: In qPCR the cycle at which signal appears reflects the starting amount.

Another assay concerns KRAS mutant A549 cells. As to the kind of experiment: Cell death, Annexin V/PI. The class given is cell-based, human. Particulars: 1 μM 6-thio-dG, 5 μM Gam.
Assay [4] concerns NRAS mutant melanoma cells. Put plainly: ROS production, H2DCFDA fluorescence. Particulars: 1 μM for 7 days. It counts as cell-based, human. As for the experimental part: FIGS. 2a-h. […] (FIGS. 2a-c) NRASmut melanoma cells (FIG. 2a), BRAF-V600E/NRAS mutant cells derived from melanoma patients resistant to BRAF/MEK inhibitors (FIG. 2b), or non-transformed melanocytes and fibroblasts (FIG. 2c) were treated with 6-thio-dG for 7 days. Cell viability was measured by Alamar Blue assay and calculated relative to DMSO-treated cells. (FIG. 2d) NRASmut melanoma cells and non-transformed human fibroblasts were treated with 1 or 5 μM 6-thio-dG for 7 or 14 days. Cell death was assessed by PSVUe staining. Percent of apoptotic cells is shown. (FIG. 2e) Cells were treated with DMSO or 1 μM 6-thio-dG for 14 days and telomere length was assessed by Southern blotting of TRF. Mean TRF length expressed as kilobase pairs is indicated at the bottom. (FIGS. 2f-g) Cells were treated with 1 μM 6-thio-dG for 7 days. (FIG. 2f) ROS production was measured by H2DCFDA fluorescence and normalized to MSO treated cells. (FIG. 2g) DNA damage was assessed by γH2AX staining. Data represent average from three independent experiments±SEM. *p<0.05; **p<0.01; ***p<0.005 in unpaired Student's t-test. […] Tumor volume was measured and average tumor volume (n=4)±SEM was plotted vs. time.
Measurement of reactive oxygen species. General or mitochondrial specific ROS were measured by flow cytometry H2DCFDA or MitoSoxRed (Invitrogen, Waltham, Mass.) following manufacturer's specifications.

Each structure is given as a SMILES string. Entries after “also recorded” stand apart in the source; their conditions may differ.

In the case of `Nc1nc2c(ncn2[C@H]2C[C@H](O)[C@@H](CO)O2)c(=S)[nH]1` [6-thio-dG, 6-thio-2′-deoxy-guanosine], the “tumor growth, single agent” value in assay [1] is given as “slowed the growth of tumors; also recorded: slowed, but did not completely abrogated tumor growth”. Besides, in assay [2], the “mitochondrial ROS levels” value is recorded as “increased mitochondrial ROS levels”. In assay [3], the GPX1 expression entry was “upregulation”, the SOD2 expression entry is “upregulation” and the UCP2 expression result is given as “upregulation”. Besides, the cell death entry with KRAS mutant A549 cells was “did not induce substantial death”. Besides, the ROS levels entry in assay [4] is listed as “increased levels”.
